# Data: patent US20230103142A1, “SMALL MOLECULE REGULATORS OF NOTCH1 AND USES THEREOF” (THE PENN STATE RESEARCH FOUNDATION, priority 2020, published 2023)
# Where two headings read alike, the source gives them in different places.
# Columns and labels:
# [1] = system: proteasome in ALDH+ cells; settings: 15 and 30 min
# Description: Commercially available positive and negative controls were used for these experiments. […] Next, ubiquitination-associated NRR of Notch 1 degradation were examined.
# ALDH− (BC) cells = system: ALDH− (BC) cells
# Description: (§1) Studies have shown that Notch1 signaling is mainstay of breast cancer stem cell (BCSC) growth.
# ALDH+ (BCSC) cells = system: ALDH+ (BCSC) cells
# Description: as §1
# MDA-MB-231 cells = assay: apoptosis assay
# MDA-MB-231 TNBC cells = assay: cell viability assay; format: cell-based; settings: for IC50: read-out: IC50 cell growth
# Protocol: Synergistic effects of combinations were calculated via isobologram analysis.
# [2] = system: Notch1/HCT116 (C4) xenografts; assay: xenograft tumor growth study; settings: 5 mg/kg intraperitoneally thrice a week, 4 weeks
# Protocol: (§5) Xenograft studies: Six- to eight-week-old BALB/c athymic nude mice (nu/nu) (Jackson Laboratory: Bar Harbor, Me., USA) were subcutaneously injected with pCMV/HCT116 and C4 (1×10^6 cells). The monitoring and measurements were performed.
# pCMV/HCT116 xenografts = assay: xenograft tumor growth study; settings: 5 mg/kg intraperitoneally thrice a week, 4 weeks
# Protocol: as §5
# [3] = biological target: NRR of Notch1 in HCT116 cells (Homo sapiens, UniProt P46531); settings: ASR490-treated HCT116 cells
# Protocol: (§2) Binding Studies. The protein-ligand binding was first studied by cellular thermal shift assay (CETSA) by following previously described protocol. […] Equal amount of cell lysate was used for ELISA with NRR antibody (Cat: NBP2-62557; Novus Biologicals). GloMelt Thermal Shift Protein Stability assay was performed as per the kit instructions (GloMelt™ Thermal Shift Protein Stability Kit; Biotium; Fermont, Calif.). […] A protein melt run profile was generated and Tm (melting temperature) was calculated using DNA melt curve software. To analyze protein melting, the Tm was considered at the lowest −dF/dT value (at the lowest point on the curve).
# purified NRR protein = settings: vs vehicle (DMSO)
# Protocol: as §2
# Notch1/HCT116 clone C4 [4] = assay: colony forming assay
# Protocol: Six biological replicates used for MTT assays and it was repeated twice for each experiment. […] The anchorage-independent growth assay was performed and repeated in triplicate.
# [5] = system: Bladder Cancer cells (TCCSUP and HT1376); assay: MTT assay in bladder cancer cells with low basal Notch1; settings: low basal level of Notch1, 24 h
# Description: Six biological replicates used for MTT assays and it was repeated twice for each experiment. Data are presented, from independent experiments, as the mean±standard deviation (SEM/SD). The Student's t-test was used to calculate the statistical significance between the vehicle and treatment at each concentration. *p<0.05, **p<0.01 and ***p<0.001. […] Six biological replicates used for MTT assays and it was repeated twice for each experiment. Data are presented, from independent experiments, as the mean±standard deviation (SEM/SD). The Student's t-test was used to calculate the statistical significance between the vehicle and treatment at each concentration. *p<0.05 and # Not significant.
# Six biological replicates used for MTT assays and it was repeated twice for each experiment.
# Notch1/HCT116 clone C4 [6] = settings: read-out: IC50 cell growth; C4 transfectants, 24 h
# Protocol: (§3) Cell culture and supplies: HCT116, SW-620, TCCSUP, UMUC3, HT1376, 5637, T24 and RT4 cells were purchased from ATCC (American Type Culture Collection; Manassas, Va., USA). HCT116, T24, RT4 were maintained in McCoy's medium, TCCSUP, UMUC3, HT1376 in EMEM, SW620 in DMEM and 5637 in RPMI medium, respectively, and supplemented with 10% FBS and penicillin (100 units/mL) and streptomycin (100 units/mL; Millipore Sigma, St Louis, […]., USA) in the presence of 5% CO2 at 37° C. pCMV6-NOTCH1, vector pCMV6-Entry (NOTCH′ (NM_017617) Human ORF Clone; Origene) and NOTCH1 Human siRNA Oligo Duplex were obtained from Origene Technologies Inc. (Rockville, Md., USA). Lipofectamine 2000 reagent was used following the manufacturer's (Cat #11668019; ThermoFisher Scientific) instruction, transfection with overexpression vectors was performed with 500 ng plasmid concentration, while the siRNA was used in 25 nM concentration. Cells were allowed to be transfected for 48 hrs and later harvested or treated for further analysis. Neomycin ([…]) selection media was used to cultivate Notch1-overexpressing HCT116 clones (C1, C2, C3, C4, C5).
# Notch1/HCT116 clone C5 = settings: read-out: IC50 cell growth; C5 transfectants, 24 h
# Protocol: as §3
# [7] = system: Notch1 silenced HCT116 cells; settings: vs scrambled transfected HCT116, 24 h
# Protocol: as §3
# [8] = system: NICD and HES1 in HCT116 cells; settings: HCT116, IC50 concentration
# Protocol: (§4) Protein extraction and western blotting: Mammalian Protein Extraction Reagent (Thermo Scientific, Rockford, Ill., USA) was used to extract total protein from pCMV/HCT116, C4, and C5 cells as well as bladder cancer cells were prepared with the according to the manufacturer's instructions. Western blotting was performed using specific antibodies against Notch1 (Cat: 3447S), Bcl-2 (Cat: 2872S), E-cadherin (Cat: 3195S), N-cadherin (Cat: 13116S), Snail (Cat: 3879S), β-catenin (Cat: 8480S), NF-κB (p65), Bax (Cat: 5023S), cleaved PARP (Cat: 9541L) (Cell Signaling Technology; Danvers, Mass., USA), and β-actin (Santa Cruz Biotechnologies, Dallas, Tex., USA), HES1 (Genescript; Lot QC1851, Piscataway, N.J., USA). Actin presented in the images represent the loading control for one or more markers from same cell lysates. Chemiluminescence was used to detect the positive bands on the membrane.
# [9] = system: NICD and HES1 in SW620 cells; settings: SW620, IC50 concentration
# Protocol: as §4
# [10] = system: ALDH+ xenotransplanted tumors; assay: ALDH+ xenotransplant tumor burden; settings: ALDH+ xenotransplanted mice
# [11] = read-out: IC 50 cell growth, 24 h
# [12] = read-out: IC 50 cell growth, 48 h
# NRR of Notch1 in HCT116 cells, sequence (P46531 19-2555): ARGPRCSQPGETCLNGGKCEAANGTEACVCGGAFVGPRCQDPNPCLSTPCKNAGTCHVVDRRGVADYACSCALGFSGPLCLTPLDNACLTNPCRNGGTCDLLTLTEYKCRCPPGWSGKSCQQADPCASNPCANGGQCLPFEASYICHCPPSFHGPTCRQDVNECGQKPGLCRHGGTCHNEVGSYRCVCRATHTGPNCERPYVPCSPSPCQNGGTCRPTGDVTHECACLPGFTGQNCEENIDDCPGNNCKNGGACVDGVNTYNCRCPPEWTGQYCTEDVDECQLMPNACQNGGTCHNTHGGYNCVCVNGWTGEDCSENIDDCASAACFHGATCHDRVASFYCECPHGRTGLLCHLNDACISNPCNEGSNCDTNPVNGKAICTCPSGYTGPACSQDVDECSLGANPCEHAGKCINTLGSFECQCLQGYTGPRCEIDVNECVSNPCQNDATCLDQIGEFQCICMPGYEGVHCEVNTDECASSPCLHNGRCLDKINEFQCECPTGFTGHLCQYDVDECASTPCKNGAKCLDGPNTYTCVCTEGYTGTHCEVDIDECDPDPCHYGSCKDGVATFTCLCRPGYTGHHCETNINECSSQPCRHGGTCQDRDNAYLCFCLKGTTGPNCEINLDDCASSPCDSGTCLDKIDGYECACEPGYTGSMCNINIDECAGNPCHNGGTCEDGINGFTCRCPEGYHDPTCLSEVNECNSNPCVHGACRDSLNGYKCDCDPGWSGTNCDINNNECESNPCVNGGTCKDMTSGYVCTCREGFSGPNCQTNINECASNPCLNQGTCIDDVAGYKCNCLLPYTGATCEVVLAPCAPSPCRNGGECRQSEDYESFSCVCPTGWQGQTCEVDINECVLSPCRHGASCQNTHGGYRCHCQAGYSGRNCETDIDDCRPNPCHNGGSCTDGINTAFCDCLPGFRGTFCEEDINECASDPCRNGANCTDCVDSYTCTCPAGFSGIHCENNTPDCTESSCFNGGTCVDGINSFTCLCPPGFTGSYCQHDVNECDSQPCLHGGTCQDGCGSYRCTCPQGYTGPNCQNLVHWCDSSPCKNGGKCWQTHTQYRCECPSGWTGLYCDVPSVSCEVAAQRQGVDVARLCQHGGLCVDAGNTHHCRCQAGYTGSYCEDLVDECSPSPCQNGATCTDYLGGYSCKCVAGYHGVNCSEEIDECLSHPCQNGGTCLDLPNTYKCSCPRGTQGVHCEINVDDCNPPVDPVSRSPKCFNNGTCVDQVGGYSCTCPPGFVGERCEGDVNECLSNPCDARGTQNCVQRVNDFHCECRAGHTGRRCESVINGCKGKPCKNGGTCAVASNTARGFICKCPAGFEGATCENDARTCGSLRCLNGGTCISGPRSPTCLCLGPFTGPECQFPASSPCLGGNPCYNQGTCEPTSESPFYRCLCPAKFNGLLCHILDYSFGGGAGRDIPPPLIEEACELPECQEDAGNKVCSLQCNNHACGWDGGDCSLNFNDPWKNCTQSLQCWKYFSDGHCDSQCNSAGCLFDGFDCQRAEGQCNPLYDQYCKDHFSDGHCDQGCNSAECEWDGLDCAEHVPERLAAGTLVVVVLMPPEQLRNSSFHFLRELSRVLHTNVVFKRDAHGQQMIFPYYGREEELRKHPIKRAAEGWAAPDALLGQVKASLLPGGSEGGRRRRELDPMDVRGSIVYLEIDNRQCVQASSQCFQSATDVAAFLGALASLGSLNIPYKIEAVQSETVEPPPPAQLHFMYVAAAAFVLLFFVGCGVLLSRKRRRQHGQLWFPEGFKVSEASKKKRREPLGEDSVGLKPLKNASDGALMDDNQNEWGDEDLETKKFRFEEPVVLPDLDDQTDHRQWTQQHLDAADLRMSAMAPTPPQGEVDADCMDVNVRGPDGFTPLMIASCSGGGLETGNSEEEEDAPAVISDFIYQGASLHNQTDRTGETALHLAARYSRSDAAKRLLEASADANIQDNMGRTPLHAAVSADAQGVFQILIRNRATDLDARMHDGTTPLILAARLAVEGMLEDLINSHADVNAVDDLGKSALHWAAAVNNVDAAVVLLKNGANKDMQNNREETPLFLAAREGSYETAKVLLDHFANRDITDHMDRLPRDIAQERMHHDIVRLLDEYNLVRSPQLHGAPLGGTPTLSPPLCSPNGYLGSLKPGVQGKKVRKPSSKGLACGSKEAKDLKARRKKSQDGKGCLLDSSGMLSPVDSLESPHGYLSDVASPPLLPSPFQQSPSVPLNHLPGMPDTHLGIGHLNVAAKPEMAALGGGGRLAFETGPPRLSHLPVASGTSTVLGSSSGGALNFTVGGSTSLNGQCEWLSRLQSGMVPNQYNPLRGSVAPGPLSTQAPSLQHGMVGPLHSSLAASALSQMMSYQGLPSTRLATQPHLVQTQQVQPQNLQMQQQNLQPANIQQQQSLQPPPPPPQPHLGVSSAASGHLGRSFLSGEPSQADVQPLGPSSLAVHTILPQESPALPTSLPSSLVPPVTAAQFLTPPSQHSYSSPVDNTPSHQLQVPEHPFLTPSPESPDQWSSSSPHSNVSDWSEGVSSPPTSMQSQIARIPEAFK
smiles,measurement,setting,value
"CC1=C(CO)C(=O)O[C@@H]([C@@H](C)[C@H]2CC[C@H]3[C@@H]4C[C@H]5O[C@]56[C@@H](OC(=O)c5ccccn5)C=CC(=O)[C@]6(C)[C@H]4CC[C@]23C)C1 [ASR490, Pyridine-2-carboxylic acid {17-[1-(5-hydroxymethyl-4-methyl-6-oxo-3,6-dihydro-2H-pyran-2-yl)-ethyl]-10,13-dimethyl-1-oxo, 4,6,7,8,9,10,11,12,13,14,15,16,17-tetradecahydro-20-oxacyclopropa[5,6]cyclopenta[a]phenanthren-4-yl}ester]",proteasome inhibition,[1],not a proteasomal inhibitor
same,IC50,ALDH− (BC) cells; [11],1.6 µM
same,IC50,ALDH− (BC) cells; [12],0.836 µM
same,IC50,ALDH+ (BCSC) cells; [11],0.77 µM
same,IC50,ALDH+ (BCSC) cells; [12],0.443 µM
same,apoptosis,"MDA-MB-231 cells; MDA MB-231, 24 h",approximately 20
same,apoptosis,"MDA-MB-231 cells; MDA MB-231, 48 h",~43
same,IC50,"MDA-MB-231 TNBC cells; MDA-MB-231, 24 h",0.76 µM
same,IC50,"MDA-MB-231 TNBC cells; MDA-MB-231, 48 h",0.444 µM
same,inhibition of proliferation by combination,MDA-MB-231 TNBC cells; ⅕th of IC50 of ASR490 (152 nM) in combination with 1/20th of IC50 of DOX (46.4 nM),30%
same,growth inhibition alone,MDA-MB-231 TNBC cells; ⅕th of IC50 of ASR490 alone,did not inhibit the growth
same,tumor growth,[2],significant tumor growth inhibition
same,tumor growth,pCMV/HCT116 xenografts,significant tumor growth inhibition
same,binding to NRR by CETSA,[3],binds directly to NRR
same,thermal stabilization of NRR protein,purified NRR protein,increased stabilization of NRR protein
same,reduction of colony forming ability,Notch1/HCT116 clone C4 [4],38%
same,growth of bladder cancer cells,[5],failed inhibit their growth
same,IC50,Notch1/HCT116 clone C4 [6],0.8 µM
same,IC50,Notch1/HCT116 clone C5,1.1 µM
same,growth of Notch1 silenced cells,[7],failed to inhibit the growth
same,expression of NICD and HES1 protein,[8],Significant downregulation
same,expression of NICD and HES1 protein,[9],Significant downregulation
same,safe dose relative to dose used in efficacy studies,500 mg/kg vs 5 mg/kg,100 times
same,safe dose (MTD check),nu/nu mice,≤ 500 mg/kg
same,tumor burden,[10],significantly reduced tumor burden
